In experiment [1] the test system is Enterococcus faecium. Nature of the experiment: Antimicrobial activity against Enterococcus faecium LMG 16003 assessed as absence of visible growth measured after 20 hrs by broth dilution assay. It is filed as functional, organism-based. For orientation: In broth dilution the organism is exposed to a series of concentrations in liquid medium.
For experiment [2], the system named is Cell membrane. Description: Induction of inner membrane permeability in Micrococcus flavus NIZO B423 using DNA-binding stain propidium iodide in presence of Rod beta by membrane integrity assay.
Experiment [3] relates to Salmonella enterica. Nature of the experiment: Antimicrobial activity against Salmonella enterica LMG 07233 assessed as absence of visible growth measured after 20 hrs by broth dilution assay. Type of experiment: functional, organism-based.
The subject of experiment [4] is Cell membrane. Nature of the experiment: Induction of outer membrane permeability in Escherichia coli using 1-N-Nphenylnaphthylamine fluorescent probe in presence of Rod beta by microplate reader. Type of experiment: subcellular.
The subject of experiment [5] is Bacillus cereus. Description: Antimicrobial activity against Bacillus cereus ATCC14579 assessed as absence of visible growth measured after 20 hrs by broth dilution assay. It is filed as functional, organism-based.
The test system of experiment [6] is Bacillus cereus. Description: Antimicrobial activity against Bacillus cereus ATCC14579 assessed as absence of visible growth in presence of Rod-beta measured after 20 hrs by broth dilution assay. Type of experiment: functional, organism-based.
Experiment [7] has as its system Staphylococcus aureus. Description: Antimicrobial activity against methicillin-resistant Staphylococcus aureus assessed as absence of visible growth in presence of Rod-beta measured after 20 hrs by broth dilution assay. Type of experiment: functional, organism-based.
In experiment [8] the test system is Cell membrane. Description: Induction of outer membrane permeability in Escherichia coli using 1-N-Nphenylnaphthylamine fluorescent probe by microplate reader. Type of experiment: subcellular.
The subject of experiment [9] is Staphylococcus aureus. Description: Antimicrobial activity against Staphylococcus aureus LMG 8224 assessed as absence of visible growth measured after 20 hrs by broth dilution assay. It is filed as functional, organism-based.
Experiment [10] deals with Staphylococcus aureus. Description: Antimicrobial activity against Staphylococcus aureus LMG 15975 assessed as absence of visible growth measured after 20 hrs by broth dilution assay. Type of experiment: functional, organism-based.
Experiment [11] has as its system Enterococcus faecium. Nature of the experiment: Antimicrobial activity against Enterococcus faecium LMG 16003 assessed as absence of visible growth in presence of Rod-beta measured after 20 hrs by broth dilution assay. It is filed as functional, organism-based.
In experiment [12] the test system is Cell membrane. Nature of the experiment: Induction of inner membrane permeability in Micrococcus flavus NIZO B423 using DNA-binding stain propidium iodide by membrane integrity assay. Type of experiment: subcellular.
The test system of experiment [13] is Micrococcus flavus. Description: Antimicrobial activity against Micrococcus flavus NIZO B423 assessed as absence of visible growth measured after 20 hrs by broth dilution assay. Type of experiment: functional, organism-based.
Experiment [14] deals with Listeria monocytogenes. Description: Antimicrobial activity against Listeria monocytogenes LMG 10470 assessed as absence of visible growth in presence of Rod-beta measured after 20 hrs by broth dilution assay. It is filed as functional, organism-based.
Experiment [15] concerns Lactococcus lactis. Description: Antimicrobial activity against Lactococcus lactis NZ9000 assessed as absence of visible growth measured after 20 hrs by broth dilution assay. It is filed as functional, organism-based.
The subject of experiment [16] is Bacillus subtilis. Nature of the experiment: Antimicrobial activity against Bacillus subtilis 168 assessed as absence of visible growth measured after 20 hrs by broth dilution assay. It is filed as functional, organism-based.
In experiment [17] the test system is Listeria monocytogenes. Description: Antimicrobial activity against Listeria monocytogenes LMG 10470 assessed as absence of visible growth measured after 20 hrs by broth dilution assay. It is filed as functional, organism-based.
Experiment [18] can be described thus: Binding affinity to externally added Lipid II (unknown origin) in Micrococcus flavus NIZO B423 broth assessed as decrease in antimicrobial activity against Micrococcus flavus by Spot-on-lawn assay.
For experiment [19], the system named is Escherichia coli. Description: Antimicrobial activity against Escherichia coli LMG 8223 assessed as absence of visible growth measured after 20 hrs by broth dilution assay. It is filed as functional, organism-based.
In experiment [20] the test system is Staphylococcus aureus. Nature of the experiment: Antimicrobial activity against methicillin-resistant Staphylococcus aureus assessed as absence of visible growth in presence of Rod-alpha measured after 20 hrs by broth dilution assay. It is filed as functional, organism-based.
The test system of experiment [21] is Cell membrane. Description: Induction of outer membrane permeability in Escherichia coli using 1-N-Nphenylnaphthylamine fluorescent probe in presence of Rod alpha by microplate reader. It is filed as subcellular.
The subject of experiment [22] is Listeria monocytogenes. Nature of the experiment: Antimicrobial activity against Listeria monocytogenes LMG 10470 assessed as absence of visible growth in presence of Rod-alpha measured after 20 hrs by broth dilution assay. It is filed as functional, organism-based.
In experiment [23] the test system is Cell membrane. Nature of the experiment: Induction of inner membrane permeability in Micrococcus flavus NIZO B423 using DNA-binding stain propidium iodide in presence of Rod alpha by membrane integrity assay.
In experiment [24] the test system is Enterococcus faecium. Description: Antimicrobial activity against Enterococcus faecium LMG 16003 assessed as absence of visible growth in presence of Rod-alpha measured after 20 hrs by broth dilution assay. It is filed as functional, organism-based.
The subject of experiment [25] is Bacillus cereus. Description: Antimicrobial activity against Bacillus cereus ATCC14579 assessed as absence of visible growth in presence of Rod-alpha measured after 20 hrs by broth dilution assay. Type of experiment: functional, organism-based.

Active and inactive are the calls of the source. The calls are words filed in the database; no cut-off is given here.

For `C/C=C(\NC(=O)[C@H](CC(N)=O)NC(=O)/C(=C/C)NC(=O)[C@@H]1CCSC[C@@H](N)C(=O)N1)C(=O)N[C@@H](Cc1ccccc1)C(=O)N[C@H](C)C(=O)N[C@@H](CC(C)C)C(=O)N[C@@H]1CSC[C@H](C(=O)N[C@H]2CCSC[C@H]3NC(=O)[C@H](CCC(=O)O)NC(=O)[C@H](CCCCN)NC(=O)[C@@H](CSC[C@H](C(=O)O)NC(=O)[C@H](Cc4c[nH]c5ccccc45)NC(=O)[C@H](C)NC(=O)[C@H](CCSC)NC3=O)NC(=O)[C@H](C(C)C)NC2=O)NC(=O)[C@H](Cc2c[nH]c3ccccc23)NC(=O)CNC(=O)CNC(=O)[C@H](CCCCN)NC(=O)[C@H](CC(N)=O)NC(=O)CNC(=O)[C@H](Cc2c[nH]c3ccccc23)NC(=O)[C@H](Cc2ccc(O)cc2)NC(=O)[C@H](CC(=O)O)NC1=O`, the outcome in experiment [1], in [3], in experiment [5], in [8], in experiment [9] and in experiment [10] was inactive. Moreover, the outcome in experiment [12], in experiment [13], in experiment [15], in [16], in experiment [17] and in [19] was inactive. In addition, the outcome in experiment [2], in experiment [4], in [6], in [7], in experiment [11] and in experiment [14] was Active. Besides, the outcome in experiment [18] was Active.

`C/C=C(/NC(=O)[C@@H](N)Cc1c[nH]c2ccccc12)C(=O)N1CCC[C@H]1C(=O)N[C@@H](C)C(=O)N[C@@H](CC(C)C)C(=O)N[C@H](C)C(=O)N[C@H](C(=O)N[C@H](C(=O)N[C@H](CC)C(=O)NCC(=O)N[C@@H](Cc1ccc(O)cc1)C(=O)N[C@H](C(=O)N[C@@H]1CSC[C@H](C(=O)N2CCC[C@H]2C(=O)N[C@H]2CCSC[C@H](C(=O)N[C@H]3CCSC[C@H](C(=O)O)NC(=O)[C@H](C)NC(=O)[C@H](CCCNC(=N)N)NC3=O)NC(=O)[C@H](C)NC(=O)[C@H]([C@@H](C)O)NC2=O)NC(=O)[C@H]([C@@H](C)O)NC(=O)[C@H](CC(N)=O)NC(=O)[C@H](CO)NC1=O)[C@@H](C)CC)[C@@H](C)CC)C(C)C`: the outcome in [1], in experiment [3], in experiment [5], in experiment [8], in [9] and in [10] was inactive. In addition, the outcome in experiment [12], in experiment [13], in experiment [15], in [16], in experiment [17] and in experiment [19] was inactive. In addition, the outcome in experiment [20], in [21], in [22], in [23], in [24] and in [25] was Active.

The values are drawn from ChEMBL document CHEMBL6127067, “Discovery, Biosynthesis, and Characterization of Rodencin, a Two-Component Lanthipeptide, Harboring d-Amino Acids Introduced by the Unusual Dehydrogenase RodJA” (J Nat Prod, 2024).
